The source of these data is patent publication US20240360143A1, “[1,2,4]TRIAZOLO[4,3-A]PYRIMIDIN-7(8H)-ONE AS MITOCHONDRIAL PYRUVATE CARRIER INHIBITORS FOR USE IN THE TREATMENT OF CANCER” (MPC THERAPEUTICS SA, priority 2021, published 2024).

Experiment [1] deals with B16F10 tumors modified to express HER2. In words: Adoptive cell transfer of HER2-CAR T cells produced with compound, B16 melanoma expressing HER2. Format: in vivo, mouse. Here is the method:
For each retroviral preparation, 8×10^6 Phoenix ECO cells (ATCC, CRL-3214) were plated in a T150 tissue culture flask in RPMI medium supplemented with 10% FCS, 10 mM HEPES and 50 U/ml Penicillin-Streptomycin. On the next day, cells were transfected with 21 μg of the retroviral construct with Turbofect transfection reagent (Thermo Fischer Scientific), according to the manufacturer protocol. The medium was changed daily and collected at 48 h and 72 h post transfection. 48 h and 72 h virus supernatants were pooled and sedimented at 22′000 rcf for 2 h at 4° C. Finally, retrovirus pellets were resuspended in 2 ml of full RPMI medium and divided in 8 aliquots of 250 μl each, which were snap-frozen on dry ice and stored at −80° C.
Spleens from wild type CD45.1.2 mice were smashed on a 70 μm cell strainer. CD8 T cells were purified using the Easy SepTM Mouse CD8+ T Cell Isolation Kit (StemCell) according to the manufacturer protocol. 0.5×10^6 CD8 T cells were plated in 48 well plates in 0.5 ml of complete RPMI 1640 medium supplemented with 10% FCS, antibiotics and 50 IU/ml of recombinant human IL-2, and exposed to either DMSO or 20 μM Compound 45. Mouse T-cells were activated with Activator CD3/CD28 Dynabeads (Gibco) at a ratio of 2 beads per cell. Retroviral infection was conducted at 37° C. for 24 h. Untreated 48 well plates were coated for 24 h with 20 μg/ml of recombinant human fibronectin (Takara Clontech) at 4° C., followed by PBS 2% BSA for 30 min at RT and finally washed with PBS. One aliquot of concentrated retroviruses was plated in each fibronectin-coated 48 well plates and centrifuged for 90 min at 2′000 rcf and 32° C. Then, 0.5×10^6 of 24 h-activated CD8 T cells were added on top of the viruses and spun for 10 min at 400 rcf and 32° C. On day 3, the medium was replaced with 10 IU/ml recombinant human IL-2, 10 ng/ml recombinant human IL-7 and 10 ng/ml recombinant human IL-15, containing either DMSO or 20 μM Compound 45. Cells were then split every second day.
CD45.2 C57BL/6 mice were engrafted subcutaneously with 4×10^5 B16F10 tumors modified to express HER2. Six days later, mice were lymphodepleted with 100 mg/kg cyclophosphamide (Sigma Aldrich, C7397) injected i.p., and homogeneous groups were constituted with regard to tumor volume. T cells (5×10^6) were adoptively transferred i.v. on the next day. Tumor volumes were measured three times a week with a caliper and calculated using the formula: V=π×[d2×D]/6, where d is the minor tumor axis and D is the major tumor axis. Tumors were collected and separated from skin. Single cell suspensions were obtained with the Mouse Tumor Dissociation Kit (Miltenyi, 130-096-730) according to the manufacturer protocol. Spleen and draining lymph node were smashed on a 70 μm cell strainer. Single cell suspensions were stained with antibodies before flow cytometry analysis.
Polyclonal CD8 T cells from wild type mice were activated in the presence of DMSO or 20 μM Compound 45 and then retrovirally transduced with a HER2-CAR construct (FIG. 4A). […] No difference in percentages of memory precursor effector T cells could be detected (FIG. 4F) and TCF1-expressing T cells (FIG. 4G). […] More tumor-infiltrating Compound 45-treated CAR T cells expressed TCF1 (FIG. 5H). […] Finally, fewer Compound 45-treated CAR T cells were expressing the inhibitory molecules PD1 and TIM3, indicating a less exhausted phenotype (FIG. 5K).

Experiment [2] deals with T1, mitochondrial pyruvate carrier (MPC) (Homo sapiens, UniProt O95563+Q9Y5U8).
T1 sequence (Q9Y5U8 1-109): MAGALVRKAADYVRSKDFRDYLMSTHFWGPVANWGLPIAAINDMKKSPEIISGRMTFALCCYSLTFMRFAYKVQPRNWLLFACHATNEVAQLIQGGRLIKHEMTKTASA
T1 sequence (O95563 1-127): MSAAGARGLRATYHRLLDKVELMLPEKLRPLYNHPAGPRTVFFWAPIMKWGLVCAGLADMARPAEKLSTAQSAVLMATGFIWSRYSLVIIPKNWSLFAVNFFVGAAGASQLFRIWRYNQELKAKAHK
As to the kind of experiment: Seahorse Xfe24 pyruvate-dependent OCR in HeLa cells. Format: cell-based. The following applies: pyruvate-dependent OCR in presence of fCCP. Here is the method:
(§1) The inhibition of mitochondrial pyruvate carrier (MPC) by compounds of the invention have been tested as follows and their inhibitory activity was expressed as IC50s values.
Cells are plated in the customized Seahorse plates. For HeLa cells, seeding is at 4×10^4 cells/well in […] DMEM, 10% FBS, 1% pen/strep/glutamine. 3 wells are left blank (medium alone) for internal calibration. The assay cartridge is hydrated overnight at 37° C. in 1 ml/well XF Calibrant Solution.
Since 50 μl of compound of the invention will be injected into 450 μl washed cells, compounds are made up in assay medium at 10× the final desired concentration
For dose response analyses, compounds are tested at final concentrations 30, 5, 0.83, 0.14, 0.023 μM (1:6 serial dilutions from […])
Positive control: […] (the parent hit compound which gave rise to the actual series)
Negative control: Assay medium alone.
The seahorse reagent plate is prepared as follows and transfered to the Xfe24 analyser for the calibration step:
The medium is almost completely removed from the well without allowing cells to dry Cells are washed twice with 300 μl Assay Medium. 450 μl fresh Assay Medium is added to each well. The plate is transferred to the Xfe24 analyser for measurement of pyruvate-dependent OCR. All values are normalized to the initial basal respiration rate in each well which is measured prior to addition of compounds and designated as 100%. IC50 determination is based on the average of the 3 measurements made in the presence of fCCP, taking 30 μM parent hit compound as maximal inhibition and PBS/Ca/Mg as zero inhibition.

Experiment [3] has as its target T1, mitochondrial pyruvate carrier (MPC). In words: Bret IC50, inhibitory activity against MPC. Format: cell-based.
Description: as §1
Table 2 below presents the IC50s of the compounds of the invention.

Usually IC50 stands for the point on the concentration scale where inhibition reaches its midpoint.

Structures are written as SMILES.

Regarding `O=c1cc(Cc2ccccc2)n2c(SCc3c(F)cccc3Cl)nnc2[nH]1` [Compound 45, 5-benzyl-3-[(2-chloro-6-fluorobenzyl)sulfanyl][1,2,4]triazolo[4,3-a]pyrimidin-7 (8H)-one], the tumor growth entry in experiment [1] (HER2CAR T cells produced with 20 μM compound, 5×10^6 cells i.v. (FIGS. 4B and 4C)) is given as “significantly suppress”. In addition, in experiment [1] (blood 12 days after ACT (FIG. 4D)), the “number of CAR T cells in blood” value was “no difference”. Moreover, the “percentage of HER2CAR T cells forming short-lived effector T cells” value in experiment [1] (blood 12 days after ACT (FIG. 4E)) is “significantly reduced”. Also, the “percentages of memory precursor effector T cells” value in experiment [1] (blood 12 days after ACT (FIG. 4F)) is “No difference”. The “percentages of TCF1-expressing T cells” value in experiment [1] (blood 12 days after ACT (FIG. 4G)) is given as “No difference”. The “central memory T cell differentiation” value in experiment [1] (draining lymph node (FIG. 5B)) and in experiment [1] (spleen (FIG. 5E)) was “Neither in the draining lymph node nor in the spleen could be observed a difference” throughout. Besides, the “HER2CAR T cells expressing TCF1” value in experiment [1] (draining lymph node (FIG. 5C)) and in experiment [1] (spleen (FIG. 5F)) was “Neither in the draining lymph node nor in the spleen could be observed a difference” in each case. Further, the “engraftment of HER2CAR T cells in the spleen” value in experiment [1] (spleen (FIG. 5D)) was “increase was significant”. Further, in experiment [1] (tumor (FIG. 5G)), the “CAR T cells in tumors” value is listed as “significantly more”. The “tumor-infiltrating CAR T cells expressing TCF1” value in experiment [1] (tumor (FIG. 5H)) is “More”. The “CAR T cells expressing the inhibitory molecules PD1 and TIM3” value in experiment [1] (tumor (FIG. 5K)) was “fewer”. Besides, the “progenitor exhausted T cells (TCF1-positive)” value in experiment [1] (tumor, co-expression of TCF1 with PD1 (FIG. 5I)) was “more”. In experiment [1] (tumor, co-expression of TCF1 with PD1 (FIG. 5J)), the “terminally differentiated exhausted T cells (TCF1-negative)” value is on record as “less”. In addition, in experiment [1] (tumor-draining lymph nodes (FIG. 5A)), the “engraftment of HER2CAR T cells in the tumor-draining lymph nodes” value is listed as “trend towards an increased engraftment”. For the same molecule, the values for the half-maximal inhibitory concentration (IC50) in experiment [2] and in experiment [3] were 64 nM and 117 nM, respectively.
